# Test results: PMC10197133, “Synthesis, Computational Insights, and Evaluation of Novel Sigma Receptors Ligands” (ACS Chemical Neuroscience, 2023)
# System: capsaicin-induced mechanical hypersensitivity in mice
# Assay: Capsaicin-induced secondary mechanical hypersensitivity (allodynia)
# Assay type: in vivo, female CD1 mice
# Conditions: s.c., 30 min before capsaicin 1 μg i.pl.; paw withdrawal latency at 0.5 g force; 4b 5–20 mg/kg; PRE-084 32 mg/kg
# Description: We used capsaicin-induced secondary hypersensitivity (allodynia) as a pain model. It has been described that the increase in mechanical sensitivity in the area surrounding capsaicin injection (area of secondary allodynia) is due to central sensitization, which is a relevant process for chronic pain development and maintenance.[48]
# Experiments were performed in female CD1 mice (Charles River, Barcelona, Spain) weighing 25–30 g. The mice were acclimated in our animal facilities for at least 1 week before testing and housed in a room under controlled environmental conditions: 12/12 h day/night cycle, air replacement every 20 min, and regulated temperature (22 ± 2 °C). The animals were fed a standard laboratory diet (Harlan Teklad Research Diet, Madison, Wisconsin) and tap water ad libitum until the beginning of the experiments. Testing was always performed from 9.00 to 15.00 h and randomly throughout the oestrous cycle. Animal care was made in accordance with institutional (Research Ethics Committee of the University of Granada, Spain), regional (Junta de Andalucía, Spain), and international standards (European Communities Council Directive 2010/63).
# As selective S1R drugs, we used the S1R antagonist BD-1063 (1-[2-(3,4-dichlorophenyl)ethyl]-4-methylpiperazine dihydrochloride) and the S1R agonist PRE-084 (2-(4-morpholinethyl)-1-phenyl cyclohexane carboxylate hydrochloride) (both provided by Tocris Cookson, Bristol, U.K.).[57] The standard or experimental compounds were dissolved in 5% DMSO (Merck KGaA, Darmstadt, Germany) in physiological sterile saline (0.9% NaCl). They were prepared immediately before the start of the experiments and injected s.c. in a volume of 5 mL/kg into the interscapular area.
# To test for the antiallodynic effects of BD-1063, 4b, 5b, or 8f, they were administered 30 min before the injection of capsaicin, used as the chemical algogen. To test the effects of PRE-084 or 4b on the antiallodynia induced by BD-1063, 8f, or 5b, the former were administered 5 min before the latter. When the effect of the association of several drugs was assessed, each injection was performed in different areas of the interscapular zone to avoid mixture of the drug solutions and any physicochemical interaction between them.
# Capsaicin (Sigma-Aldrich Química S.A.) was dissolved in 1% DMSO in physiological sterile saline to a concentration of 0.05 μg/μL (i.e., 1 μg per mouse). Capsaicin solution was injected intraplantarly (i.pl.) into the right hind paw proximate to the heel, in a volume of 20 μL using a 1710 TLL Hamilton microsyringe (Teknokroma, Barcelona, Spain) with a 30^1/2-gauge needle. Control animals were injected with the same volume of the vehicle of capsaicin.
# Animals were placed for 2 h in individual black-walled test compartments, which were situated on an elevated mesh-bottom platform with a 0.5-cm^2 grid to provide access to the ventral surface of the hind paws. Punctate mechanical stimulation was applied with a Dynamic Plantar Aesthesiometer (Ugo Basile, Varese, Italy) 15 min after capsaicin or saline administration (i.e., 45 min after the injection of the experimental drug). Briefly, a nonflexible filament (0.5 mm diameter) was electronically driven into the ventral side of the right hind paw (which was previously injected with capsaicin or vehicle) at least 5 mm away from the site of the injection toward the fingers. The intensity of the stimulation was fixed at 0.5 g force, as described previously.[49],[50] When a paw withdrawal response occurred, the stimulus was automatically terminated and the response latency was recorded. The filament was applied three times at intervals of 0.5 min, and the mean value of the three trials was considered the withdrawal latency time of the animal.
row,SMILES,"antiallodynic effect, compound administered alone"
1,"Cl.O=C(OCCN1CCOCC1)C1(c2ccccc2)CCCCC1 [PRE-084, 2-(4-morpholinethyl)-1-phenyl cyclohexane carboxylate hydrochloride, reference compound]",did not modify the response latency

# Target: T1, S1R (Rattus norvegicus, UniProt Q9R0C9)
# T1 sequence (Q9R0C9 whole entry): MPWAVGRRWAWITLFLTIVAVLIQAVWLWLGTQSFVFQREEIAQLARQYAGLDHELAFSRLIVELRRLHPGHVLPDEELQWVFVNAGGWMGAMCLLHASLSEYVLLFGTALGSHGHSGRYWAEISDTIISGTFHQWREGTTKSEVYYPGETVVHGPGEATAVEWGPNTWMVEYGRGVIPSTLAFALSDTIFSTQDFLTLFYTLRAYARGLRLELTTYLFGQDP
# Assay: S1R functional assay: S1R radioligand binding with or without phenytoin
# Parameters: incubating 200 μL of membrane preparation with 50 μL of 20 nM; from tissue; host or cells: membrane preparation
# Conditions: >1 agonist, ≤1 antagonist
# Description: In order to further asses the functional profile of compounds 4b, 5b, and 8f, the well-established phenytoin-based functional assay was carried out.[52] Previous studies have shown that phenytoin, a low-potent allosteric modulator for the S1R, differentially modulates the affinity of S1R ligands depending on their agonist versus antagonist functionality.
# The functionality of compounds 4b, 5b, and 8f on S1R was determined using the same radiolabeled binding assay for the S1R in the presence of phenytoin. […] The final volume was 0.5 mL.
row,SMILES,ratio Ki (nM) control/+ phenythoin
1,"C=CCN1CC[C@]2(C)c3cc(O)ccc3C[C@H]1[C@H]2C [SKF-10,047, reference compound]",5.8

# Same assay, conditions: concluded from Ki ratio control/with phenytoin
row,SMILES,S1R functional profile in vitro (phenytoin assay)
1,"C=CCN1CC[C@]2(C)c3cc(O)ccc3C[C@H]1[C@H]2C [SKF-10,047, reference compound]",agonist profile for the S1R

# Same assay, conditions: with phenytoin (20 μL of 25 mM in 0.5 mL), 120 min at 37 °C; read-out: Ki (nM) + phenythoin
row,SMILES,Ki
1,"C=CCN1CC[C@]2(C)c3cc(O)ccc3C[C@H]1[C@H]2C [SKF-10,047, reference compound]",17 nM

# Same assay, conditions: without phenytoin; read-out: Ki (nM) control
row,SMILES,Ki
1,"C=CCN1CC[C@]2(C)c3cc(O)ccc3C[C@H]1[C@H]2C [SKF-10,047, reference compound]",99 nM

# Target: T1, S1R
# Assay: S1R radioligand binding assay, [3H](+)-pentazocine, liver homogenates
# Parameters: from tissue; host or cells: rat liver homogenate (male Sprague-Dawley); species or system male Sprague-Dawley rats
# Conditions: ratio of S2R Ki to S1R Ki
# Description: (§1) The Ki-values were calculated with the program GraphPad Prism 7.0 (GraphPad Software, San Diego, California). The Ki-values are given as mean value ± SD from at least two independent experiments performed in duplicate.
row,SMILES,KiS2R/KiS1R (preference for S1R over S2R)
1,"c1ccc(CCN2CC3(CCN(c4ccccc4)CC3)C2)cc1 [4a, 2-Phenethyl-7-phenyl-2,7-diazaspiro[3.5]nonane]",2.8
2,"c1ccc(CCN2CCC3(CC2)CN(CCc2ccccc2)C3)cc1 [4c, 2,7-Diphenethyl-2,7-diazaspiro[3.5]nonane]",6.3
3,"c1ccc(CCCN2CC3(CCN(c4ccccc4)CC3)C2)cc1 [4d, 7-Phenyl-2-(3-phenylpropyl)-2,7-diazaspiro[3.5]nonane]",1.5

# Same assay, conditions: read-out: Ki (nM) ± SD S1R
row,SMILES,Ki
1,"c1ccc(CCN2CC3(CCN(c4ccccc4)CC3)C2)cc1 [4a, 2-Phenethyl-7-phenyl-2,7-diazaspiro[3.5]nonane]",28 ± 2 nM
2,"c1ccc(CCN2CCC3(CC2)CN(CCc2ccccc2)C3)cc1 [4c, 2,7-Diphenethyl-2,7-diazaspiro[3.5]nonane]",3.5 ± 0.3 nM
3,"c1ccc(CCCN2CC3(CCN(c4ccccc4)CC3)C2)cc1 [4d, 7-Phenyl-2-(3-phenylpropyl)-2,7-diazaspiro[3.5]nonane]",34 ± 7.7 nM

# Target: T2, S2R (Rattus norvegicus, UniProt Q5U3Y7)
# T2 construct: from tissue; host or cells: rat liver homogenate (male Sprague-Dawley)
# T2 sequence (Q5U3Y7 1-176): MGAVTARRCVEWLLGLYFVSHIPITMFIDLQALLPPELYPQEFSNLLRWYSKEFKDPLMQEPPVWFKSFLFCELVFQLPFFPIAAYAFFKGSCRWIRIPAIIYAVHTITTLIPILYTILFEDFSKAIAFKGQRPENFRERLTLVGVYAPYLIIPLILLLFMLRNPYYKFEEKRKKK
# Assay: S2R radioligand binding assay, [3H]DTG with (+)-pentazocine as S1R masking agent, liver homogenates
# Parameters: species or system male Sprague-Dawley rats
# Conditions: read-out: Ki (nM) ± SD S2R
# Description: as §1
row,SMILES,Ki
1,"c1ccc(CCN2CC3(CCN(c4ccccc4)CC3)C2)cc1 [4a, 2-Phenethyl-7-phenyl-2,7-diazaspiro[3.5]nonane]",77 ± 12 nM
2,"c1ccc(CCN2CCC3(CC2)CN(CCc2ccccc2)C3)cc1 [4c, 2,7-Diphenethyl-2,7-diazaspiro[3.5]nonane]",22 ± 2.5 nM
3,"c1ccc(CCCN2CC3(CCN(c4ccccc4)CC3)C2)cc1 [4d, 7-Phenyl-2-(3-phenylpropyl)-2,7-diazaspiro[3.5]nonane]",51 ± 5 nM
